We go through 17 compounds from patent publication US8129371B2, “Thienopyrimidine and pyrazolopyrimidine compounds and their use as mTOR kinase and PI3 kinase inhibitors” (Wyeth LLC, priority 2007, dated 2012).

As a reminder, the IC50 is the concentration that gives 50% inhibition.

Like-named read-outs stand apart in the source and are kept apart here.

One assay has as its target T1, Human mTOR (FLAG-TOR) (Homo sapiens, UniProt P42345).
T1 construct: FLAG
The experiment in a line: Human mTOR kinase assay with purified enzyme, DELFIA format. In kind it is biochemical. A digest of the protocol:
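Purified FLAG-mTOR in HEPES pH 7.4 buffer with 10 mM MnCl2 was preincubated with inhibitor and reacted 2 h at room temperature with His6-S6K substrate, then stopped with EDTA/EGTA. Phospho-T389 S6K detected by DELFIA with Eu-labelled antibody (40 ng/mL) after plate capture; inhibition computed from signal.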

The target in assay [1] is T2, PI3K (Homo sapiens, UniProt P42336).
T2 construct: PI3 Kinase α IC50; other: PI3 Kinase α; other: PI3 Kinase α isoform, fluorescence polarization
Put plainly: Fluorescence polarization assay for PI3K. In kind it is biochemical. As to conditions: read-out: PI3 Kinase α IC50. The gist of the method:
(§1)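 PI3K was preincubated with compound (final DMSO 1%), and the reaction was started with PIP2/ATP substrate and run 30–60 min. It was stopped with a detector mix giving 10 nM red probe and 70 nM GST-GRP.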
On the technique in general: Polarisation of emitted light reports the rotation of a fluorescent probe.

Assay [2] addresses T3, PI3K (Homo sapiens, UniProt P48736).
T3 construct: PI3 Kinase γ IC50; other: PI3 Kinase γ; other: PI3 Kinase γ isoform, fluorescence polarization
The experiment in a line: Fluorescence polarization assay for PI3K. It counts as biochemical. The conditions noted are these: read-out: PI3 Kinase γ IC50. A digest of the protocol:
as §1

The subject of another assay is prostate line LNCap. The experiment in a line: In vitro cell culture growth assay (MTS), LNCap. The conditions noted are these: Homo sapiens, LNCaP, 72 h, LNCap cells, three days after drug treatment. It counts as cell-based. The gist of the method:
(§2)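 Cells were plated and, one day later, treated with inhibitors. Three days after treatment, viable cell density was measured by MTS dye conversion, read as absorbance at 490 nm. Effects are expressed as percent of control growth versus vehicle-treated cells on the same plate.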

The test system of a further assay is breast line MDA468. Put plainly: In vitro cell culture growth assay (MTS), MDA468. In kind it is cell-based. As to conditions: Homo sapiens, 72 h, MDA468 cells, three days after drug treatment. The gist of the method: as §2
The mark [3] stands for this setting: purified human mTOR enzyme, DELFIA format.
The mark [4] stands for this setting: PI3 Kinase α isoform, fluorescence polarization.
The mark [5] stands for this setting: PI3 Kinase γ isoform, fluorescence polarization.

T2 sequence (P42336 whole entry, canonical isoform): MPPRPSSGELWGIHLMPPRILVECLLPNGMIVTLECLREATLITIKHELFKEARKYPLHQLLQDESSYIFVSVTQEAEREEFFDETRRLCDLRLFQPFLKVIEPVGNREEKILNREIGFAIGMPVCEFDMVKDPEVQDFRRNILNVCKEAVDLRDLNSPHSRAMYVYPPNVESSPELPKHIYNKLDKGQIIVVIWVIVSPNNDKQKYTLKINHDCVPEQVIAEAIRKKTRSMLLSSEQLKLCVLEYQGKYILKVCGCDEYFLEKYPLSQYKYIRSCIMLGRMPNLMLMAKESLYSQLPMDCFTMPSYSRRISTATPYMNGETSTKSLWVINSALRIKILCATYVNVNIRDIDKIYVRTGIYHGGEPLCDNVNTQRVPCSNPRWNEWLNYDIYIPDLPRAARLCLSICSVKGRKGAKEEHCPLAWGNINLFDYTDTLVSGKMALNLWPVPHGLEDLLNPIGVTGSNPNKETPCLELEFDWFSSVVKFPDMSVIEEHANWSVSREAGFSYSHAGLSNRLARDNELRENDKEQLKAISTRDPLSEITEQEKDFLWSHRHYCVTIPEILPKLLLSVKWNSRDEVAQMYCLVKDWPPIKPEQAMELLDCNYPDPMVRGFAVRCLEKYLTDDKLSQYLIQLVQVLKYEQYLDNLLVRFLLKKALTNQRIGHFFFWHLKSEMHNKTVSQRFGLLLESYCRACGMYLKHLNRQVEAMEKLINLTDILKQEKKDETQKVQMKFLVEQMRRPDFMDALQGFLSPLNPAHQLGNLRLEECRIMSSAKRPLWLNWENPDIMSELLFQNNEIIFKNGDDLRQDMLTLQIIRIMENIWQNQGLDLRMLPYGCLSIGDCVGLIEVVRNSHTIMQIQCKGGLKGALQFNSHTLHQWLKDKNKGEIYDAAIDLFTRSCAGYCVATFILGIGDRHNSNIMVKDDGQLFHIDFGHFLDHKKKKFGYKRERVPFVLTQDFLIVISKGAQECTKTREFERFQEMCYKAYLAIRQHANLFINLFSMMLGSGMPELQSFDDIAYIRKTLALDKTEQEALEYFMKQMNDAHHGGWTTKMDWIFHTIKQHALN
T3 sequence (P48736 whole entry, canonical isoform): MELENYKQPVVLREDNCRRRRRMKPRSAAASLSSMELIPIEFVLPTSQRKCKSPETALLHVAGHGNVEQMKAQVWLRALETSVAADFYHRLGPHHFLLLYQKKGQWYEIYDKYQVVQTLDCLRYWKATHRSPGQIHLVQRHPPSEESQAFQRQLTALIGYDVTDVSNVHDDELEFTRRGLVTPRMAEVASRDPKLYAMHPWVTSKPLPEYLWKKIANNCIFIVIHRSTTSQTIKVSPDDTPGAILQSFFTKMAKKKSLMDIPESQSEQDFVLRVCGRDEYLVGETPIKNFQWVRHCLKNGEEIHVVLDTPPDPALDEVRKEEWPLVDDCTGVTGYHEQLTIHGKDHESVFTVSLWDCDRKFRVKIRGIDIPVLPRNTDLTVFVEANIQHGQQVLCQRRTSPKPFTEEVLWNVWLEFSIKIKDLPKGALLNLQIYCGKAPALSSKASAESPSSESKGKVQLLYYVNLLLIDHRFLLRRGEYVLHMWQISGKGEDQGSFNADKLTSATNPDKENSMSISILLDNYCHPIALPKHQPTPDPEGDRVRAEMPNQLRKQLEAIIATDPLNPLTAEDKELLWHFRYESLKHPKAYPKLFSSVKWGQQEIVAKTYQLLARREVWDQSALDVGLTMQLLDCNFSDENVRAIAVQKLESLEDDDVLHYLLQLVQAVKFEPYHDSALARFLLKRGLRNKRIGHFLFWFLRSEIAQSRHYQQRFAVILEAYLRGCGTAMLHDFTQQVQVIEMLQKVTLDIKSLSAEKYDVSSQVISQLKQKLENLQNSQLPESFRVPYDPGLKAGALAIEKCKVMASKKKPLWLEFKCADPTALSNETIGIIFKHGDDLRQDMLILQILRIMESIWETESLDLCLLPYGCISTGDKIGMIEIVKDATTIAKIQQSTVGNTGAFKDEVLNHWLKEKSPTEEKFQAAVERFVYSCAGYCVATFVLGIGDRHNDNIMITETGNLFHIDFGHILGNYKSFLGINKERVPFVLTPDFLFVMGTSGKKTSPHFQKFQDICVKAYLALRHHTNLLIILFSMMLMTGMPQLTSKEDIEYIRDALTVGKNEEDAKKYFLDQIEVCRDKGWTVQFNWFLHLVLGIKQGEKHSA

Regarding `CCn1ncc2c(N3CC4CCC(C3)O4)nc(-c3ccc(NC(=O)N[C@H]4CC[C@@H](N)CC4)cc3)nc21` (relative stereo) [Example 229, 1-(cis-4-aminocyclohexyl)-3-{4-[1-ethyl-4-(8-oxa-3-azabicyclo[3.2.1]oct-3-yl)-1H-pyrazolo[3,4-d]pyrimidin-6-yl]phenyl}urea], the IC50 against Human mTOR (FLAG-TOR) is 245 nM; at PI3K [1] (PI3 Kinase α) it was 2850 nM; on PI3K [2] (PI3 Kinase γ), greater than 10000 nM; in the assay with prostate line LNCap, 4900 nM; with breast line MDA468 it was 4000 nM.

Regarding `c1cc2cc(-c3nc(N4CC5CCC(C4)O5)c4cnn(C5CCC6(CC5)OCCO6)c4n3)ccc2[nH]1` [Example 388, 1-(1,4-dioxaspiro[4.5]dec-8-yl)-6-(1H-indol-5-yl)-4-(8-oxa-3-azabicyclo[3.2.1]oct-3-yl)-1H-pyrazolo[3,4-d]pyrimidine], the IC50 was 12.5 nM on Human mTOR (FLAG-TOR) (setting [3]); 10500 nM on PI3K [1] (setting [4]); greater than 10000 nM at PI3K [2] (setting [5]); 330 nM in the assay with prostate line LNCap; 2000 nM in the assay with breast line MDA468.

Regarding `CNC(=O)Nc1ccc(-c2nc(N3CC4CCC(C3)O4)c3cnn(C)c3n2)cc1` [Example 50, 1-methyl-3-{4-[1-methyl-4-(8-oxa-3-azabicyclo[3.2.1]oct-3-yl)-1H-pyrazolo[3,4-d]pyrimidin-6-yl]phenyl}urea], the IC50 against Human mTOR (FLAG-TOR) was 2 nM; at PI3K [1] (PI3 Kinase α), 247 nM; at PI3K [2] (PI3 Kinase γ), 6290 nM; in the assay on prostate line LNCap it was 170 nM; with breast line MDA468, 700 nM.

Consider `CC(C)C(=O)N1CCC(n2ncc3c(N4CC5CCC(C4)O5)nc(-c4ccc(NC(=O)Nc5cccnc5)cc4)nc32)CC1` [Example 88, 1-{4-[1-(1-isobutyrylpiperidin-4-yl)-4-(8-oxa-3-azabicyclo[3.2.1]oct-3-yl)-1H-pyrazolo[3,4-d]pyrimidin-6-yl]phenyl}-3-pyridin-3-ylurea], for which the IC50 turned out to be 0.3 nM on Human mTOR (FLAG-TOR); 454 nM on PI3K [1] (PI3 Kinase α); 3820 nM at PI3K [2] (PI3 Kinase γ); 60 nM with prostate line LNCap; 130 nM in the assay with breast line MDA468.

Take `COC(=O)N1CCC(n2ncc3c(N4C5CCC4COC5)nc(-c4ccc(NC(=O)NCCF)cc4)nc32)CC1` [Example 358, methyl 4-[6-(4-{[(2-fluoroethyl)carbamoyl]amino}phenyl)-4-(3-oxa-8-azabicyclol[3.2.1]oct-8-yl)-1H-pyrazolo[3,4-d]pyrimidin-1-yl]piperidine-1-carboxylate]: the IC50 against Human mTOR (FLAG-TOR) (setting [3]) was 0.495 nM; at PI3K [1] (setting [4]) it was 7700 nM; on PI3K [2] (setting [5]), 7930 nM; in the assay on prostate line LNCap, 6 nM; in the assay with breast line MDA468 it was 35 nM.

Consider `CNC(=O)Nc1ccc(-c2nc(N3CC4CCC(C3)O4)c3cnn(C4CCC(OC)CC4)c3n2)cc1` (stereo not shown) [Example 383, 1-{4-[1-(4-methoxycyclohexyl)-4-(8-oxa-3-azabicyclo[3.2.1]oct-3-yl)-1H-pyrazolo[3,4-d]pyrimidin-6-yl]phenyl}-3-methylurea], for which the IC50 against Human mTOR (FLAG-TOR) (setting [3]) was 0.53 nM; on PI3K [1] (setting [4]), 793 nM; at PI3K [2] (setting [5]) it was greater than 10000 nM; in the assay on prostate line LNCap, 7 nM; with breast line MDA468, 30 nM.

Take `O=C(Nc1ccc(-c2nc(N3CC4CCC(C3)O4)c3cnn(C4CCC5(CCCO5)CC4)c3n2)cc1)Nc1ccc(N2CCNCC2)cc1` (single isomer, unassigned) [Example 314, 1-(4-{4-(8-oxa-3-azabicyclo[3.2.1]oct-3-yl)-1-[(5r,8r)-1-oxaspiro[4.5]dec-8-yl]-1H-pyrazolo[3,4-d]pyrimidin-6-yl}phenyl)-3-(4-piperazin-1-ylphenyl)urea]: the IC50 against Human mTOR (FLAG-TOR) (setting [3]) worked out at 0.455 nM; at PI3K [1] (setting [4]) it was 511 nM; on PI3K [2] (setting [5]), 2020 nM; with prostate line LNCap, 1 nM; in the assay on breast line MDA468 it was 15 nM.

As to `CN1CCN(C2CCC(n3ncc4c(N5CC6CCC(C5)O6)nc(-c5ccc(NC(=O)Nc6cccnc6)cc5)nc43)CC2)CC1` (stereo not shown) [Example 330, 1-(4-{1-[4-(4-methylpiperazin-1-yl)cyclohexyl]-4-(8-oxa-3-azabicyclo[3.2.1]oct-3-yl)-1H-pyrazolo[3,4-d]pyrimidin-6-yl}phenyl)-3-pyridin-3-ylurea], the IC50 at Human mTOR (FLAG-TOR) (setting [3]) was found to be 0.405 nM; on PI3K [1] (setting [4]) it was 238 nM; on PI3K [2] (setting [5]), 1850 nM; with prostate line LNCap, 7 nM; in the assay with breast line MDA468 it was 60 nM.

Turning to `O=C(Nc1ccc(-c2nc(N3C4CCC3COC4)c3cnn(CC(F)(F)F)c3n2)cc1)NC1CC1` [Example 271, 1-cyclopropyl-3-{4-[4-(3-oxa-8-azabicyclo[3.2.1]oct-8-yl)-1-(2,2,2-trifluoroethyl)-1H-pyrazolo[3,4-d]pyrimidin-6-yl]phenyl}urea], the IC50 against Human mTOR (FLAG-TOR) was determined as 0.355 nM; on PI3K [1] (PI3 Kinase α), 3680 nM; on PI3K [2] (PI3 Kinase γ), 9000 nM; in the assay with prostate line LNCap, 7 nM; in the assay on breast line MDA468, 80 nM.

Regarding `CC(C)(C)OC(=O)N1CCC(n2ncc3c(N4CC5CCC(C4)O5)nc(-c4ccc(NC(=O)NC5CC5)cc4)nc32)CC1` [Example 22, tert-butyl 4-[6-{4-[(cyclopropylcarbamoyl)amino]phenyl}-4-(8-oxa-3-azabicyclo[3.2.1]oct-3-yl)-1H-pyrazolo[3,4-d]pyrimidin-1-yl]piperidine-1-carboxylate], the IC50 against Human mTOR (FLAG-TOR) was 0.56 nM; at PI3K [1] (PI3 Kinase α), 3850 nM; on PI3K [2] (PI3 Kinase γ) it was greater than 10000 nM; with prostate line LNCap, 27 nM; with breast line MDA468, 150 nM.

For the compound `CCn1ncc2c(N3CC4CCC(C3)O4)nc(-c3ccc(NC(=O)NC4CCCCC4)cc3)nc21` [Example 227, 1-cyclohexyl-3-{4-[1-ethyl-4-(8-oxa-3-azabicyclo[3.2.1]oct-3-yl)-1H-pyrazolo[3,4-d]pyrimidin-6-yl]phenyl}urea], the IC50 against Human mTOR (FLAG-TOR) was 15 nM; on PI3K [1] (PI3 Kinase α) it was 5940 nM; at PI3K [2] (PI3 Kinase γ) it was greater than 10000 nM; in the assay with prostate line LNCap, 1200 nM; with breast line MDA468, 3200 nM.

For `CN1CCN(c2ccc(NC(=O)Nc3ccc(-c4nc(N5CC6CCC(C5)O6)c5cnn(CC(F)(F)F)c5n4)cc3)cn2)CC1` [Example 262, 1-[6-(4-methylpiperazin-1-yl)pyridin-3-yl]-3-{4-[4-(8-oxa-3-azabicyclo[3.2.1]oct-3-yl)-1-(2,2,2-trifluoroethyl)-1H-pyrazolo[3,4-d]pyrimidin-6-yl]phenyl}urea], the 50% inhibitory concentration (IC50) is 0.515 nM at Human mTOR (FLAG-TOR); 191 nM at PI3K [1] (PI3 Kinase α); 1360 nM at PI3K [2] (PI3 Kinase γ); 1 nM with prostate line LNCap; 5 nM in the assay on breast line MDA468.

In the case of `O=C1CCC(n2ncc3c(N4CC5CCC(C4)O5)nc(-c4ccc(NC(=O)OCCO)cc4)nc32)CC1` [Example 211, 2-hydroxyethyl {4-[4-(8-oxa-3-azabicyclo[3.2.1]oct-3-yl)-1-(4-oxocyclohexyl)-1H-pyrazolo[3,4-d]pyrimidin-6-yl]phenyl}carbamate], the IC50 against Human mTOR (FLAG-TOR) was 0.885 nM; at PI3K [1] (PI3 Kinase α), 2120 nM; on PI3K [2] (PI3 Kinase γ) it was greater than 10000 nM; in the assay on prostate line LNCap it was 17 nM; in the assay with breast line MDA468, 120 nM.

Consider `CCNC(=O)Nc1ccc(-c2nc(N3CC4CCC(C3)O4)c3cnn(CCN(C)C)c3n2)cc1` [Example 160, 1-(4-{1-[2-(dimethylamino)ethyl]-4-(8-oxa-3-azabicyclo[3.2.1]oct-3-yl)-1H-pyrazolo[3,4-d]pyrimidin-6-yl}phenyl)-3-ethylurea], for which the IC50 against Human mTOR (FLAG-TOR) was 13 nM; at PI3K [1] (PI3 Kinase α) it was 3120 nM; on PI3K [2] (PI3 Kinase γ), greater than 10000 nM; in the assay on prostate line LNCap it was 280 nM; in the assay on breast line MDA468 it was 1800 nM.

With `COC(=O)N1CCC(n2ncc3c(N4CC5CCC(C4)O5)nc(-c4ccc(NC(=O)OCCO)cc4)nc32)CC1` [Example 112, methyl 4-[6-(4-{[(2-hydroxyethoxy)carbonyl]amino}phenyl)-4-(8-oxa-3-azabicyclo[3.2.1]oct-3-yl)-1H-pyrazolo[3,4-d]pyrimidin-1-yl]piperidine-1-carboxylate], the IC50 was 0.75 nM at Human mTOR (FLAG-TOR); 1260 nM on PI3K [1] (PI3 Kinase α); greater than 10000 nM at PI3K [2] (PI3 Kinase γ); 40 nM in the assay with prostate line LNCap; 1050 nM in the assay on breast line MDA468.

For `CNC(=O)Nc1ccc(-c2nc(N3CC4CCC(C3)O4)c3cnn([C@H]4CC[C@@H](OC)CC4)c3n2)cc1` (relative stereo) [Example 387, 1-{4-[1-(cis-4-methoxycyclohexyl)-4-(8-oxa-3-azabicyclo[3.2.1]oct-3-yl)-1H-pyrazolo[3,4-d]pyrimidin-6-yl]phenyl}-3-methylurea], the IC50 against Human mTOR (FLAG-TOR) (setting [3]) was found to be 0.33 nM; at PI3K [1] (setting [4]), 705 nM; at PI3K [2] (setting [5]), 404 nM; in the assay on prostate line LNCap it was 1 nM; in the assay on breast line MDA468 it was 19 nM.

On to `CN(C)CCOc1ccc(NC(=O)Nc2ccc(-c3nc(N4C[C@@H]5C[C@H]4CO5)c4cnn(CC(F)(F)F)c4n3)cc2)cc1` [Example 300, 1-{4-[2-(dimethylamino)ethoxy]phenyl}-3-(4-{4-[(1S,4S)-2-oxa-5-azabicyclo[2.2.1]hept-5-yl]-1-(2,2,2-trifluoroethyl)-1H-pyrazolo[3,4-d]pyrimidin-6-yl}phenyl)urea], for which the IC50 against Human mTOR (FLAG-TOR) (setting [3]) came to 5.5 nM; on PI3K [1] (setting [4]) it was 572 nM; at PI3K [2] (setting [5]), 5280 nM; in the assay on prostate line LNCap, 1 nM; in the assay on breast line MDA468 it was 12 nM.
